In US20060173015A1, “Cyclohexyldiamines as selective alpha 1a/1d adrenoreceptor antagonists for the treatment of benign prostatic hypertrophy and lower urinary tract symptoms” (priority 2004, published 2006):

System: Mean Arterial Pressure (MAP)
Assay: Phenylephrine-induced MAP in an anesthetized canine model
Format: in vivo
Conditions: anesthetized dog
Experimental: In-Vivo Evaluation of α1-Adrenergic Antagonists on Prostatic Intraurethral Pressure (IUP) and Mean Arterial Pressure (MAP) in an Anesthetized Canine Model
An anesthetized dog was fitted with a balloon catheter for the measurement of changes in prostatic IUP and with a non-invasive blood pressure (NIBP) cuff for determination of MAP.
The pressor effects of challenge doses (i.v.) of the α-adrenergic agonist phenylephrine upon IUP and MAP were measured before and at various time points after a single dose (i.v.) of an α-adrenergic antagonist test compound (Compound 69) of the present invention.
Each treatment group was dosed with a test compound (0.01, 0.03, 0.1 and 0.5 mg/kg) in four separate experiments. The first challenge dose of phenylephrine was administered 30 mins prior to the test compound dose and at 30 min intervals thereafter for a total time period of 5 hrs (i.e at time minus 30 mins, time plus 30 mins, 1 hr, 1.5 hrs, 2 hrs, 2.5 hrs, 3 hrs, 3.5 hrs, 4 hrs, 4.5 hrs and 5 hrs).
The animals were fasted overnight, anesthetized with propofol (4 mg/kg IV or to effect), then intubated and anesthesia maintained using inhalation isoflurane (1-2% in oxygen at a flow rate of 2 l/min) with animals breathing spontaneously.
Blood pressure was measured non-invasively using a Critikon 8100 monitor. An infant blood pressure cuff was placed on a forelimb. Measurements were made automatically at 1-minute intervals during recording periods. […] Care was taken to accurately correlate the time of the MAP readings with the time of the phenylephrine dose. Recording periods typically lasted from 5 minutes before phenylephrine administration to 10 minutes after. The monitor was turned off between recording periods to allow the arterial blood vessels of the forelimb to recover from repeated cuff inflations.
Because of the variability of the MAP value, several values recorded during a five minute “control” period prior to the phenylephrine challenge dose were averaged to establish a mean baseline value for measuring the phenylephrine-induced change in MAP.
MAP readings also varied during the response to the phenylephrine challenge. A visual peak MAP value, seen on the monitor at about 3 minutes after the challenge dose, was recorded and used to calculate the maximum phenylephrine induced change in MAP. Additionally, MAP values were recorded at one minute intervals and curve fitted to estimate a maximum MAP value. The curve fitted maximum value was used to confirm the visual maximum value.
A test compound was administered via the cephalic vein using an appropriately sized IV catheter (Surflo, Terumo Medical Corporation or equivalent).
Prior to test compound administration, IUP and MAP responses to an individualized dose of phenylephrine (either 10 or 15 μg/kg IV, depending on the individual animal's response) was repeated 2 to 3 times to establish a baseline response. After test compound administration, the individualized phenylephrine dose was administered to each animal at 30 minute intervals over a period of 5 hours.
Data for phenylephrine-induced changes in IUP and MAP were tabulated for each treatment group and each experiment. A mean value and standard deviation for the phenylephrine-induced changes to the effect of a test compound on IUP and MAP at each dose was calculated and tabulated for each treatment group over the length of the 5.5 hour study.

## COc1ccc(S(=O)(=O)N[C@H]2CC[C@@H](N3CCN(c4ccccc4OCC(F)(F)F)CC3)CC2)cc1OC [Cpd 69, 3,4-Dimethoxy-N-cis-(4-{4-[2-(2,2,2-trifluoro-ethoxy)-phenyl]-piperazin-1-yl}-cyclohexyl)-benzenesulfonamide]
0.01 mg/kg i.v., 0 hrs (baseline)
  MAP, normalized % of baseline (mean): 100%
0.01 mg/kg i.v., 0.5 hrs after dose
  MAP, normalized % of baseline (mean): 88.2%
0.01 mg/kg i.v., 1 hrs after dose
  MAP, normalized % of baseline (mean): 68.9%
0.01 mg/kg i.v., 2 hrs after dose
  MAP, normalized % of baseline (mean): 83.1%
0.01 mg/kg i.v., 3 hrs after dose
  MAP, normalized % of baseline (mean): 88.0%
0.01 mg/kg i.v., 4 hrs after dose
  MAP, normalized % of baseline (mean): 82.0%
0.01 mg/kg i.v., 5 hrs after dose
  MAP, normalized % of baseline (mean): 91.1%
0.03 mg/kg i.v., 0 hrs (baseline)
  MAP, normalized % of baseline (mean): 100%
0.03 mg/kg i.v., 0.5 hrs after dose
  MAP, normalized % of baseline (mean): 39.9%
0.03 mg/kg i.v., 1 hrs after dose
  MAP, normalized % of baseline (mean): 40.9%
0.03 mg/kg i.v., 1.5 hrs after dose
  MAP, normalized % of baseline (mean): 44.1%
0.03 mg/kg i.v., 2 hrs after dose
  MAP, normalized % of baseline (mean): 61.0%
0.03 mg/kg i.v., 2.5 hrs after dose
  MAP, normalized % of baseline (mean): 59.4%
0.03 mg/kg i.v., 3 hrs after dose
  MAP, normalized % of baseline (mean): 59.2%
0.03 mg/kg i.v., 3.5 hrs after dose
  MAP, normalized % of baseline (mean): 59.8%
0.03 mg/kg i.v., 4 hrs after dose
  MAP, normalized % of baseline (mean): 58.4%
0.03 mg/kg i.v., 4.5 hrs after dose
  MAP, normalized % of baseline (mean): 71.1%
0.03 mg/kg i.v., 5 hrs after dose
  MAP, normalized % of baseline (mean): 90.3%
0.1 mg/kg i.v., 0 hrs (baseline)
  MAP, normalized % of baseline (mean): 100%
0.1 mg/kg i.v., 0.5 hrs after dose
  MAP, normalized % of baseline (mean): 45.5%
0.1 mg/kg i.v., 1 hrs after dose
  MAP, normalized % of baseline (mean): 47.4%
0.1 mg/kg i.v., 1.5 hrs after dose
  MAP, normalized % of baseline (mean): 35.0%
0.1 mg/kg i.v., 2 hrs after dose
  MAP, normalized % of baseline (mean): 44.0%
0.1 mg/kg i.v., 2.5 hrs after dose
  MAP, normalized % of baseline (mean): 54.0%
0.1 mg/kg i.v., 3 hrs after dose
  MAP, normalized % of baseline (mean): 51.3%
0.1 mg/kg i.v., 3.5 hrs after dose
  MAP, normalized % of baseline (mean): 56.4%
0.1 mg/kg i.v., 4 hrs after dose
  MAP, normalized % of baseline (mean): 47.0%
0.1 mg/kg i.v., 4.5 hrs after dose
  MAP, normalized % of baseline (mean): 73.3%
0.1 mg/kg i.v., 5 hrs after dose
  MAP, normalized % of baseline (mean): 84.3%
0.5 mg/kg i.v., 0 hrs (baseline)
  MAP, normalized % of baseline (mean): 100%
0.5 mg/kg i.v., 0.5 hrs after dose
  MAP, normalized % of baseline (mean): 27.6%
0.5 mg/kg i.v., 1 hrs after dose
  MAP, normalized % of baseline (mean): 18.4%
0.5 mg/kg i.v., 1.5 hrs after dose
  MAP, normalized % of baseline (mean): 16.0%
0.5 mg/kg i.v., 2 hrs after dose
  MAP, normalized % of baseline (mean): 18.3%
0.5 mg/kg i.v., 2.5 hrs after dose
  MAP, normalized % of baseline (mean): 19.4%
0.5 mg/kg i.v., 3 hrs after dose
  MAP, normalized % of baseline (mean): 23.8%
0.5 mg/kg i.v., 3.5 hrs after dose
  MAP, normalized % of baseline (mean): 19.2%
0.5 mg/kg i.v., 4 hrs after dose
  MAP, normalized % of baseline (mean): 32.3%
0.5 mg/kg i.v., 4.5 hrs after dose
  MAP, normalized % of baseline (mean): 32.1%
0.5 mg/kg i.v., 5 hrs after dose
  MAP, normalized % of baseline (mean): 29.4%
